From patent US7994140B2, “Classes of compounds that interact with GPCRs” (Alchemia Limited, priority 2002, dated 2011) come the findings set out here.

In this test the target is T1, SST5 (Homo sapiens, UniProt P35346).
T1 construct: purchased Perkin Elmer BioSignal; host or cells: HEK 293
The test can be described thus: GPCR radioligand binding (RLB) assay, somatostatin SST5, [125I]SST-14. The note with it: for SST5 inhibition at 10 micromolar: 10 micromolar compound, recombinant human receptor membranes (HEK 293); for SSTS inhibition at 10 micromolar: Example Library 4. The procedure:
Recombinant human receptors expressed in HEK 293 cells were used for all experiments. Receptor membrane preparations were purchased from Perkin Elmer BioSignal. The labelled ligand used in somatostatin GPCR RLB assays was [^125I]SST-14 and in melanocortin assays was [^125I]NDP-αMSH. All assays were done in a 96-well plate format using either glass fiber filter mats or filter plates. All reagents purchased were of the highest quality.
Specific assay buffer, incubation and washing conditions were optimized for each receptor however they all followed the same general format. The procedures for both filter mat and filter plate formats are based on the receptor manufacturers recommendations or those described extensively in the literature. The procedures are briefly outlined below.
In assays where filter mats are used we incubate receptor membranes, assay buffer and [^125I] labelled ligand in 96 well microplates. Add compounds to incubation mixture and continue incubation for optimized period. Presoak Filter mat GF/B in 0.5% PEI for ˜2 hr at 4° C. On completion of assay mixture incubation add additional 100 μL/well of assay buffer immediately prior to filtration. Filter the assay mixture onto the GF/B filter mat using a cell harvester. Dry the filter mats prior to sealing them into a scintillation counting bag with scintillant. Radioactivity in each well is detected by liquid scintillation counting.
In assays where filter plates are used Multiscreen glass fiber filter plates (Millipore, Cat No MAFCNOB10) are precoated with 0.5% PEI for ˜2 hr at 4° C. All wells are then washed with 200 µl/well assay buffer and filtered using the Multiscreen Separation System. Subsequently receptor membranes, assay buffer and labelled ligands are added to the wells and equilibrated. Compounds for testing are then added to the mixture and incubation is continued for an optimized time. Plates are then put into the Multiscreen Separation System and the assay mixture is filtered through the plate under vacuum. Each well is then washed several times with assay buffer. Plates are then dried prior to putting sealing tape onto the bottom of the plate. Scintillant is added to each well and radioactivity measured by liquid scintillation counting.
Raw data was analysed according to standard methods using either GraphPad Prism software or IDDBS ActivityBase software.

T1 sequence (P35346 whole entry): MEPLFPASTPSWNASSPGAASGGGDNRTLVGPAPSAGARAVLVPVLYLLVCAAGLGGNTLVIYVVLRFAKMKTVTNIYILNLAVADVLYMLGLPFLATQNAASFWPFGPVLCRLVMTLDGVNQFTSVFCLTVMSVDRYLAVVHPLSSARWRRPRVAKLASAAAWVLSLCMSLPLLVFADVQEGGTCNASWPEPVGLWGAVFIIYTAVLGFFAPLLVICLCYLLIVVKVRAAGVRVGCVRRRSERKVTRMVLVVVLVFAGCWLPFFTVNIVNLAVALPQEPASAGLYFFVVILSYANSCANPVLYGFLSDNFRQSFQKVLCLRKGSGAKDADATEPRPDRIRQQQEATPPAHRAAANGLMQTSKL

Take `COC[C@H]1OC(OCc2ccc3ccccc3c2)[C@H](NC(=O)CCCN)[C@@H](OCc2cccc(O)c2)[C@@H]1O` (stereo partly shown) [Compound 23]: the “SST5 inhibition at 10 micromolar” value is on record as “+ (Indicates inhibition greater than . . . 50%)”. The same measure, in the same setting: then `COC[C@H]1OC(OCc2ccc3ccccc3c2)[C@H](NC(=O)CCCNC(=N)N)[C@@H](OCc2cccc(O)c2)[C@@H]1O` (stereo partly shown) [Compound 24], with “+ (Indicates inhibition greater than . . . 50%)”; and `COC[C@H]1OC(OCc2ccccc2)[C@H](NC(=O)CCCN)[C@@H](OCc2cccc(O)c2)[C@@H]1O` (stereo partly shown) [Compound 25], with “+ (Indicates inhibition greater than . . . 50%)”. Still for that read-out and setting: then `COC[C@H]1OC(OCc2ccc(Cl)cc2)[C@H](NC(=O)CCCN)[C@@H](OCc2cccc(O)c2)[C@@H]1O` (stereo partly shown) [Compound 26], with “+ (Indicates inhibition greater than . . . 50%)”; and `COC[C@H]1OC(OCCc2ccccc2)[C@H](NC(=O)CCCN)[C@@H](OCc2cccc(O)c2)[C@@H]1O` (stereo partly shown) [Compound 27], with “+ (Indicates inhibition greater than . . . 50%)”; and `COC[C@H]1OC(OCc2ccc(-c3ccccc3)cc2)[C@H](NC(=O)CCNC(=N)N)[C@@H](OCc2ccccc2)[C@@H]1O` (stereo partly shown) [Compound 31], with “+ (Indicates inhibition greater than . . . 50%)”.

For `COC[C@H]1OC(OCc2ccc3ccccc3c2)[C@H](NC(=O)CCCNC(=N)N)[C@@H](OCc2ccccc2)[C@@H]1O` (stereo partly shown) [Compound 41], the “SST5 inhibition at 10 micromolar” value is “+ (Indicates inhibition greater than . . . 50%)”. On the same count and under the same terms, then `COC[C@H]1OC(OCc2ccc3ccccc3c2)[C@H](NC(=O)CCCN)[C@@H](OCc2ccc(Cl)cc2)[C@@H]1O` (stereo partly shown) [Compound 42], with “+ (Indicates inhibition greater than . . . 50%)”; and `COC[C@H]1OC(OCc2ccc(Cl)cc2)[C@H](NC(=O)CCCN)[C@@H](OCc2ccc(-c3ccccc3)cc2)[C@@H]1O` (stereo partly shown) [Compound 44], with “+ (Indicates inhibition greater than . . . 50%)”; and `COC[C@H]1OC(OCc2ccc(Cl)cc2)[C@H](NC(=O)CCCNC(=N)N)[C@@H](OCc2ccccc2)[C@@H]1O` (stereo partly shown) [Compound 47], with “+ (Indicates inhibition greater than . . . 50%)”. `COC[C@H]1OC(OCCc2ccccc2)[C@H](NC(=O)CCCN)[C@@H](OCc2ccc(-c3ccccc3)cc2)[C@@H]1O` (stereo partly shown) [Compound 48]: the “SST5 inhibition at 10 micromolar” value is given as “+ (Indicates inhibition greater than . . . 50%)”. Still for that read-out and setting: then `COC[C@H]1OC(OCCc2ccccc2)[C@H](NC(=O)CCCN)[C@@H](OCc2ccc3ccccc3c2)[C@@H]1O` (stereo partly shown) [Compound 50], with “+ (Indicates inhibition greater than . . . 50%)”. In the case of `COC[C@H]1OC(OCCc2ccccc2)[C@H](NC(=O)CCCN)[C@@H](OCc2ccc(Cl)cc2)[C@@H]1O` (stereo partly shown) [Compound 51], the “SST5 inhibition at 10 micromolar” value is given as “+ (Indicates inhibition greater than . . . 50%)”. On the same count and under the same terms, then `COC[C@H]1OC(OCCc2ccccc2)[C@H](NC(=O)CCCNC(=N)N)[C@@H](OCc2ccc(Cl)cc2)[C@@H]1O` (stereo partly shown) [Compound 52], with “+ (Indicates inhibition greater than . . . 50%)”; and `COC[C@H]1OC(OCc2ccccc2)[C@H](NC(=O)CCCN)[C@@H](OCc2ccc3ccccc3c2)[C@@H]1O` (stereo partly shown) [Compound 54], with “+ (Indicates inhibition greater than . . . 50%)”. The same measure, in the same setting: then `COC[C@H]1OC(OCc2ccc(Cl)cc2)[C@H](NC(=O)CCCN)[C@@H](OCc2ccc(Cl)cc2)[C@@H]1O` (stereo partly shown) [Compound 55], with “+ (Indicates inhibition greater than . . . 50%)”; and `CO[C@H]1[C@H](O)[C@@H](COCc2ccc3ccccc3c2)OC(OCc2ccc(-c3ccccc3)cc2)[C@@H]1NC(=O)CCNC(=N)N` (stereo partly shown) [Compound 60], with “+ (Indicates inhibition greater than . . . 50%)”; and `CO[C@H]1[C@H](O)[C@@H](COCc2ccccc2)OC(OCc2ccc(Cl)cc2)[C@@H]1NC(=O)CCCN` (stereo partly shown) [Compound 91], with “+ (Indicates inhibition greater than . . . 50%)”. `CO[C@H]1[C@H](O)[C@@H](COCc2cccc(O)c2)OC(OCc2ccc3ccccc3c2)[C@@H]1NC(=O)CCCN` (stereo partly shown) [Compound 109]: the “SST5 inhibition at 10 micromolar” value was “+ (Indicates inhibition greater than . . . 50%)”. On to `CO[C@H]1[C@H](O)[C@@H](COCc2cccc(O)c2)OC(OCc2ccc(Cl)cc2)[C@@H]1NC(=O)CCCN` (stereo partly shown) [Compound 111], for which the “SST5 inhibition at 10 micromolar” value is recorded as “+ (Indicates inhibition greater than . . . 50%)”.

On to `CO[C@H]1[C@H](O)[C@@H](COCc2ccc(Cl)cc2)OC(OCc2cccc(O)c2)[C@@H]1NC(=O)CCCN` (stereo partly shown) [Compound 118], for which the “SST5 inhibition at 10 micromolar” value is given as “+ (Indicates inhibition greater than . . . 50%)”. `CSC1OC(COCc2ccccc2)C(O)C(OCc2ccccc2)C1NC(=O)CN` (stereo not shown) [Compound 119]: the “SST5 inhibition at 10 micromolar” value is given as “+ (Indicates inhibition greater than . . . 50%)”. Turning to `CSC1OC(COCc2ccccc2)C(O)C(OCc2ccccc2)C1NC(=O)CCCN` (stereo not shown) [Compound 123], the “SST5 inhibition at 10 micromolar” value is reported as “+ (Indicates inhibition greater than . . . 50%)”. The same measure, in the same setting: then `CSC1OC(COCc2ccc(Cl)cc2)C(O)C(OCc2ccccc2)C1NC(=O)CN` (stereo not shown) [Compound 125], with “+ (Indicates inhibition greater than . . . 50%)”; and `CSC1OC(COCc2ccc(Cl)cc2)C(O)C(OCc2ccccc2)C1NC(=O)CCN` (stereo not shown) [Compound 127], with “+ (Indicates inhibition greater than . . . 50%)”; and `CSC1OC(COCc2ccc(-c3ccccc3)cc2)C(O)C(OCc2ccccc2)C1NC(=O)CN` (stereo not shown) [Compound 131], with “+ (Indicates inhibition greater than . . . 50%)”. With `CSC1OC(COCc2ccccc2)C(O)C(OCc2ccc(Cl)cc2)C1NC(=O)CN` (stereo not shown) [Compound 143], the “SST5 inhibition at 10 micromolar” value is listed as “+ (Indicates inhibition greater than . . . 50%)”. Consider `CSC1OC(COCc2ccccc2)C(O)C(OCc2ccc(Cl)cc2)C1NC(=O)CCCN` (stereo not shown) [Compound 147], for which the “SST5 inhibition at 10 micromolar” value is “+ (Indicates inhibition greater than . . . 50%)”. The same measure, in the same setting: then `CSC1OC(COCc2ccc(Cl)cc2)C(O)C(OCc2ccc(Cl)cc2)C1NC(=O)CN` (stereo not shown) [Compound 149], with “+ (Indicates inhibition greater than . . . 50%)”.

`CSC1OC(COCc2ccc(Cl)cc2)C(O)C(OCc2ccc(Cl)cc2)C1NC(=O)CCCN` (stereo not shown) [Compound 153]: the “SST5 inhibition at 10 micromolar” value was “+ (Indicates inhibition greater than . . . 50%)”. For the compound `CSC1OC(COCc2ccc(-c3ccccc3)cc2)C(O)C(OCc2ccc(-c3ccccc3)cc2)C1NC(=O)CCCNC(=N)N` (stereo not shown) [Compound 184], the “SST5 inhibition at 10 micromolar” value is listed as “+ (Indicates inhibition greater than . . . 50%)”. For `CSC1OC(COCc2ccccc2)C(O)C(OCc2ccc3ccccc3c2)C1NC(=O)CCN` (stereo not shown) [Compound 193], the “SST5 inhibition at 10 micromolar” value is recorded as “+ (Indicates inhibition greater than . . . 50%)”. On to `COCC1OC(OCc2ccccc2)C(NC(=O)CN)C(OCc2ccccc2)C1O` (stereo not shown) [Compound 213], for which the “SSTS inhibition at 10 micromolar” value is “+ (Indicates inhibition greater than . . . 50%)”. As for `COCC1OC(OCc2ccccc2)C(NC(=O)CCN)C(OCc2ccccc2)C1O` (stereo not shown) [Compound 215], the “SSTS inhibition at 10 micromolar” value is recorded as “+ (Indicates inhibition greater than . . . 50%)”. Still for that read-out and setting: then `COCC1OC(OCc2ccccc2)C(NC(=O)CCCN)C(OCc2ccccc2)C1O` (stereo not shown) [Compound 217], with “+ (Indicates inhibition greater than . . . 50%)”; and `COCC1OC(OCc2ccccc2)C(NC(=O)CN)C(OCc2ccc3ccccc3c2)C1O` (stereo not shown) [Compound 231], with “+ (Indicates inhibition greater than . . . 50%)”.

In the case of `COCC1OC(OCc2ccc(Cl)cc2)C(NC(=O)CCN)C(OCc2ccccc2)C1O` (stereo not shown) [Compound 238], the “SSTS inhibition at 10 micromolar” value is reported as “+ (Indicates inhibition greater than . . . 50%)”. In the case of `COCC1OC(OCc2ccc(Cl)cc2)C(NC(=O)CCCN)C(OCc2ccccc2)C1O` (stereo not shown) [Compound 240], the “SSTS inhibition at 10 micromolar” value was “+ (Indicates inhibition greater than . . . 50%)”. Still for that read-out and setting: then `COCC1OC(OCCc2ccccc2)C(NC(=O)CN)C(OCc2ccccc2)C1O` (stereo not shown) [Compound 260], with “+ (Indicates inhibition greater than . . . 50%)”; and `COCC1OC(OCCc2ccccc2)C(NC(=O)CCN)C(OCc2ccccc2)C1O` (stereo not shown) [Compound 262], with “+ (Indicates inhibition greater than . . . 50%)”; and `COCC1OC(OCCc2ccccc2)C(NC(=O)CCCN)C(OCc2ccccc2)C1O` (stereo not shown) [Compound 264], with “+ (Indicates inhibition greater than . . . 50%)”.

As for `COCC1OC(OCCc2ccccc2)C(NC(=O)CN)C(OCc2ccc(Cl)cc2)C1O` (stereo not shown) [Compound 266], the “SSTS inhibition at 10 micromolar” value is on record as “+ (Indicates inhibition greater than . . . 50%)”. For the compound `COCC1OC(OCc2ccc3ccccc3c2)C(NC(=O)CN)C(OCc2ccccc2)C1O` (stereo not shown) [Compound 284], the “SSTS inhibition at 10 micromolar” value is reported as “+ (Indicates inhibition greater than . . . 50%)”.
